Results on 13 molecules are retold here after ChEMBL document CHEMBL3112549 (Bioorg Med Chem Lett, 2014).

One may read the IC50 as the concentration that inhibits the measured activity by half. A low value points to greater potency.

The target in test [1] is Mast/stem cell growth factor receptor Kit (Homo sapiens, UniProt P10721). Description: Inhibition of c-KIT tyrosine kinase (unknown origin) after 30 mins by HTRF method.
For test [2], the target named is Vascular endothelial growth factor receptor 2 (Homo sapiens, UniProt P35968). Description: Inhibition of VEGFR-2 tyrosine kinase (unknown origin) after 30 mins by HTRF method.
Vascular endothelial growth factor receptor 2, sequence (P35968 whole entry): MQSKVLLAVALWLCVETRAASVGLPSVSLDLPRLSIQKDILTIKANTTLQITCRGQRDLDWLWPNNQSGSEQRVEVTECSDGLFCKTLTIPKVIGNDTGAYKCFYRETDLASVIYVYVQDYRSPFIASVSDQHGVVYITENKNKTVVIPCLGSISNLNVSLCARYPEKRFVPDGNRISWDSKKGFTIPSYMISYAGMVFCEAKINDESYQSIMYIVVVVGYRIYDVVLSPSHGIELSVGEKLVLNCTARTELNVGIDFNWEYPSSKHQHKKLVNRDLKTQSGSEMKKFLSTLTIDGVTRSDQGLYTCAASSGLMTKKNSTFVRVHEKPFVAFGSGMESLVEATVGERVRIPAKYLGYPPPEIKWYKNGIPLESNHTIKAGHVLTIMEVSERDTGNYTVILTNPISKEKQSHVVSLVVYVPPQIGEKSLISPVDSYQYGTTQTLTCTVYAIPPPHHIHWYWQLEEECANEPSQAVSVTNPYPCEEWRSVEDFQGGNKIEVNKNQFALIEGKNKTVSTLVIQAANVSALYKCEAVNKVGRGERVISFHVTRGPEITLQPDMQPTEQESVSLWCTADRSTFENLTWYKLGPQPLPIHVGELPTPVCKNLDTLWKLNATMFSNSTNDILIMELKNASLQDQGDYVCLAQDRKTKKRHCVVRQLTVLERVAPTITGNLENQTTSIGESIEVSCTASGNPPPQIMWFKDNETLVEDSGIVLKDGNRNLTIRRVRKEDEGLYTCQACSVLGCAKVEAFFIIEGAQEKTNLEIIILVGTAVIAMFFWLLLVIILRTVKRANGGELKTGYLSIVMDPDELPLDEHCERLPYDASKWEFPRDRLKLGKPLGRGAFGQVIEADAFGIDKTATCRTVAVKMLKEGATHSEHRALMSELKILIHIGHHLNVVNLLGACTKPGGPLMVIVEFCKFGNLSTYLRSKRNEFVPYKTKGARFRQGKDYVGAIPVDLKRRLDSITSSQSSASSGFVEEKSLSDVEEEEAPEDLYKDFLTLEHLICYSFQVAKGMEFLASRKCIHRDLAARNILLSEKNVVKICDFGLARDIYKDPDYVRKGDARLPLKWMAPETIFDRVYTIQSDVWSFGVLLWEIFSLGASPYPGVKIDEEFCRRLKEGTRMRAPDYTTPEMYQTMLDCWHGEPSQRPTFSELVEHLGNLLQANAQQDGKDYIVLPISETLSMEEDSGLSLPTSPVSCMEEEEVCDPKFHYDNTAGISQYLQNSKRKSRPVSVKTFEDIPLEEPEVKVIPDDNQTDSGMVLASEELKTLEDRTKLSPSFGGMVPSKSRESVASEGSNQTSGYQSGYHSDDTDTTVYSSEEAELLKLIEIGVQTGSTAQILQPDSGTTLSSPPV

Mast/stem cell growth factor receptor Kit, sequence (P10721 whole entry): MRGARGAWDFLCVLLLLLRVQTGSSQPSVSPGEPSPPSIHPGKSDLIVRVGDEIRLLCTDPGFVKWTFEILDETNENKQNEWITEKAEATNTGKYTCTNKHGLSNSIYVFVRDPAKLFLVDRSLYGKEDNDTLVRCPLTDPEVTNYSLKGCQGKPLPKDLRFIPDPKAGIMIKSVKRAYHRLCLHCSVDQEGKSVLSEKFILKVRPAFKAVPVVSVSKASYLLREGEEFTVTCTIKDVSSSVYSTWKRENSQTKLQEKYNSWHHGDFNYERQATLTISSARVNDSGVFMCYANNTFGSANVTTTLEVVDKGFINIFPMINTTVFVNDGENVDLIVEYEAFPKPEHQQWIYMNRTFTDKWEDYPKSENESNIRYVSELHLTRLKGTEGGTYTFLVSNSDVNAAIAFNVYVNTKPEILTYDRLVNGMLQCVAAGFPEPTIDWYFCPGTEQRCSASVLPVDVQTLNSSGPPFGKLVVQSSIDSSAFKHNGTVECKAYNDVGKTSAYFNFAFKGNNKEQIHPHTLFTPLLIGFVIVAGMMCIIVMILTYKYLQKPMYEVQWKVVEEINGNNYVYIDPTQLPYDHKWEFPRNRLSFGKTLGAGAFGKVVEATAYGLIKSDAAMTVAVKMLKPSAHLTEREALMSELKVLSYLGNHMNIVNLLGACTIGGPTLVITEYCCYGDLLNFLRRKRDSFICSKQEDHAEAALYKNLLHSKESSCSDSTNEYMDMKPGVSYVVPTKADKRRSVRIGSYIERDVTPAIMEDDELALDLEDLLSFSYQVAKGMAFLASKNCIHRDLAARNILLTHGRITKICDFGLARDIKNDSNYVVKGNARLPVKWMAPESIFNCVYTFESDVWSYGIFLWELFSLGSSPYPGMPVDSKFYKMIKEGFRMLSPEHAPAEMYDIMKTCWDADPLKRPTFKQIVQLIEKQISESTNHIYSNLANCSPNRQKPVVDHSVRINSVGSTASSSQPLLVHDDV

`Cc1c2ccc(N(C)c3ccnc(Nc4cccc(F)c4)n3)cc2nn1C`: the IC50 came to 102 nM in test [1] and 78 nM in test [2].
For `Cc1c2ccc(N(C)c3ccnc(Nc4cccc(Br)c4)n3)cc2nn1C`, in that order: 98 nM and 64 nM.
The like results for `Cc1c2ccc(N(C)c3ccnc(Nc4cccc(Cl)c4)n3)cc2nn1C` were, in that order, 80 nM and 25 nM.
For `COc1cccc(Nc2nccc(N(C)c3ccc4c(C)n(C)nc4c3)n2)c1`, in that order: 72 nM and 38 nM.
Turning to `Cc1cccc(Nc2nccc(N(C)c3ccc4c(C)n(C)nc4c3)n2)c1`, the concentration for half-maximal inhibition (IC50) in test [1] turned out to be 87 nM; in test [2], 42 nM.
For `Cc1cc(C)cc(Nc2nccc(N(C)c3ccc4c(C)n(C)nc4c3)n2)c1`, in that order: 40 nM and 21 nM.
As for `CSc1ccc(Nc2nccc(N(C)c3ccc4c(C)n(C)nc4c3)n2)cc1`, the IC50 in test [1] was found to be 71 nM; in test [2] it was 51 nM.
`Cc1c2ccc(N(C)c3ccnc(Nc4ccc(OC(F)(F)F)cc4)n3)cc2nn1C`: the figures for the 50% inhibitory concentration (IC50) in test [1] and in test [2] were 89 nM and 72 nM, respectively.
For `CN(c1ccc2cn(C)nc2c1)c1ccnc(Nc2cccc(F)c2)n1`, in that order: 96 nM and 93 nM.
As to `CN(c1ccc2cn(C)nc2c1)c1ccnc(Nc2cccc(Cl)c2)n1`, the IC50 in test [1] and in test [2] was 72 nM throughout.
Take `COc1cccc(Nc2nccc(N(C)c3ccc4cn(C)nc4c3)n2)c1`: the concentration for half-maximal inhibition (IC50) in test [1] was 77 nM; in test [2] it was 108 nM.
Consider `CN(c1ccc2cn(C)nc2c1)c1ccnc(Nc2ccc(OC(F)(F)F)cc2)n1`, for which the IC50 in test [1] was 83 nM; in test [2], 12 nM.
As for `Cc1cc(C)cc(Nc2nccc(N(C)c3ccc4cn(C)nc4c3)n2)c1`, the values for the IC50 in test [1] and in test [2] were 61 nM and 28 nM, respectively.
